Measured values taken from patent publication US10732092B2, “Analysis of single cell mechanical phenotyping for metastatic detection” (University of Maryland, College Park, priority 2015, dated 2020).

What was measured:
NIH 3T3 fibroblast cells [1] = assay: Inhibition of actin filament, Brillouin-based label-free flow cytometry; format: cell-based; conditions: cytoD 2 ug/mL for 10 minutes; 232 treated cells; FIG. 33B
Description: (§1) Two drugs, cytochalasin D (cytoD) and nocodazole (Noco), were applied to 3T3 cells to inhibit the actin filament and microtubules filament, respectively. NIH 3T3 fibroblast cells purchased from American Type Culture Collection (ATCC) were used for all experiments. Cells were cultured following standard protocols. For inhibitation of microtubules filament, cells were first treated by Noco of 1 ug/mL for 30 minutes, and then harvested by trypsinization and re-suspended in a solution of phosphate-buffered saline (PBS) without Mg^2+ and Ca^2+ at a concentration of ˜0.1 million cells per ML before measurement. Due to the low concentration, few cells were captured by flowing. Instead, a single cell in suspension was imaged after it was delivered into the microfluidic devices. […] The Brillouin shift of the treated cell 3312 is 0.29 GHz higher, indicating a distinct stiffening of its nucleus. Considering the sensitivity of the instrument is ˜0.01 GHz, microtubules filament-inhibited cells were easily identified from normal cells based on the mechanical stiffening of the nucleus.
For inhibition of actin filament, cells were first treated by cytoD of 2 ug/mL for 10 minutes, and then harvested by trypsinization and re-suspended in a solution of phosphate-buffered saline (PBS) without Mg^2+ and Ca^2+ at a concentration of ˜1 million cells per mL before measurement. […]

NIH 3T3 cell line [2] = assay: Brillouin flow cytometry of CytoD-treated suspended cells (setup of FIG. 12); format: cell-based
Description: FIG. 12 illustrates an exemplary embodiment of the current invention resulting from a novel combination of an epi-detection path to excite/collect Brillouin signal, a monitoring imaging modality, a microfluidic device (or other cell plating device), a Brillouin spectrometer and a computer with software that links all of these sub-components. A first incoming illuminating beam 1210 is focused onto one spot inside a microfluidic device 1230 by using a beam splitter 1211 and an objective lens 1212. The illuminating laser beam 1210 may be a laser beam. In one embodiment, the first incoming laser beam 1210 is focused into spot of 1 to 10 μm. The backward Brillouin scattering light is collected by the same objective lens 1212 and guided to a Brillouin spectrometer 1215 via the beam splitter 1211, a reflected mirror 1213, and a coupling lens 1214. The Brillouin spectrometer 1215 is a device that can measure the Brillouin frequency shift accurately. One example of the Brillouin spectrometer 1215 is disclosed in Scarcelli Polachech 2015 Nature Methods Above the microfluidic device 1230, there is a bright-field microscope consisting of a second light source 1220 (usually has a different wavelength from laser beam 1210), a beam splitter 1221, a tube lens 1222, an objective lens 1224, and a 2D image recording device 1225. The purpose of this microscope setup is to monitor the flowing status of the cells inside the microfluidic device 1230. In one embodiment, the microscope setup further contains a spectral filter 1223, which blocks the light from the laser beam 1210, but allows the light from a light source 1220 to pass. […]
In yet another embodiment, a second approach, named as image-guided alignment, may be used to align the flowing cell to the focused spot of the laser beam 1210. […] Suppose a cell 1630 is flowing along y-direction (from top to bottom), once it appears in the field of view, its location (x1) and the horizontal shift (x0-x1) with respect to the focused spot 1620 can be determined. […] In this case, all of the measured data points were used to plot the histogram graph in FIG. 17a. […]

F-actin = conditions: attached cells treated with CytoD; cited from earlier work
adherent cells = assay: Cytoskeletal stiffness of adherent cells treated with CytoD; format: cell-based
cells (nucleus) = assay: Brillouin and fluorescence 2D imaging of cells with and without CytoD treatment (setup of FIG. 21); format: cell-based; conditions: treated vs control group, FIGS. 23a, 23b
Description: FIG. 21 illustrates a Brillouin spectroscopy setup according to another embodiment of the current invention. In this embodiment, a second optical modality is added to acquire a co-registered confocal fluorescence image of the cell simultaneously when the cell is probed by the Brillouin beam. The second optical modality may comprise a dichroic mirror 2127, a tube lens 2122, a pinhole mask 2126, and a photo-detector 2125. The dichroic mirror 2127 will let the laser beam 2110 and the Brillouin signal pass through but reflects the fluorescence light. Compared with the bright-field microscope of FIG. 12, the confocal configuration has better transverse and lateral optical resolution by rejecting fluorescence light from the out-of-focus plane. In practice, fluorescently labelled cells can be used to identify a sub-region of a cell (e.g., nucleus) and the focused spot of laser beam 2110 can be used to directly excite fluorescence emission. Then, the confocal configuration is used to detect the fluorescence emission light by a camera 2125. Based on the intensity of the fluorescence emission light, one can accurately determine the location of the focused spot (and thus the Brillouin signal) inside the cell so that the Brillouin signal can be assigned to a targeted point. […]
As an example of classifying cells using the embodiment of FIG. 21, effect of CytoD on the cells was analyzed. […]

NIH 3T3 fibroblast cells [3] = assay: Inhibition of microtubules filament, Brillouin imaging of single suspended cell; format: cell-based; conditions: Noco 1 ug/mL for 30 minutes; single cell in suspension; FIG. 33A
Description: as §1

NIH 3T3 cell line [4] = assay: Chromatin decondensation experiment, Brillouin mechanical cytometry of TSA-treated cells; format: cell-based; conditions: TSA 100 ng/mL, 2 hours
Description: A vertically-polarized laser beam 2628 is first reflected by the polarized beam splitter (PBS) 2634 and focused into the center of a microfluidic channel 2624 from the bottom side by objective lens 2632. In one embodiment, a 11-mW single-mode linearly-polarized 532-nm cw laser (Torus, Laser Quantum) was used as a light source to excite Brillouin scattering. Due to the quarter-wave plate (QWP) 2626, the focused beam was circularly polarized. The backward scattered light was collected by the same objective lens 2632 and passed through the QWP 2626 again. The circularly-polarized light is eventually turned into horizontally-polarized one which is totally transmitted by the PBS 2634. […] The location of the focused Brillouin beam was pre-determined by removing the long-pass filter (LP) 2612. […] In one embodiment, a CCD camera 2610 and the Brillouin spectrometer 2638 were synchronized by a LabVIEW program so that the spectrometer's data can be assigned to the corresponding location of the measured sample. […] When a cell passes through the beam location (white dots indicated by the arrows), its Brillouin shift is measured. […]
Cells are cultured and re-suspended in a solution of phosphate-buffered saline (PBS) without Mg2+ and Ca2+. […] Cells without washing are then ready for fluorescence experiment. […]

C=C1[C@@H](C)[C@H]2[C@H](Cc3ccccc3)NC(=O)[C@]23[C@H](OC(C)=O)/C=C/[C@@](C)(O)C(=O)[C@@H](C)C/C=C/[C@H]3[C@@H]1O [CytoD, cytochalasin D]
decrease of averaged Brillouin shift of the nucleus, treated group vs control group (NIH 3T3 fibroblast cells [1]): 0.12 GHz
Brillouin frequency shift of cytoplasm peaks (NIH 3T3 cell line [2]; NIH 3T3, suspended after trypsinization, CytoD 0.5, 2, 5 ug/ml, FIGS. 20b-20e): almost no change
stiffness of the cells (average Brillouin frequency shift over the whole cell) (NIH 3T3 cell line [2]; NIH 3T3, suspended in PBS, CytoD 0.5, 2 and 5 ug/ml, FIG. 20a): dose dependent effect
Brillouin frequency shift of nucleus peak (nucleus stiffness) (NIH 3T3 cell line [2]; NIH 3T3, suspended, increasing dose of CytoD 0.5, 2, 5 ug/ml, FIGS. 20b-20e): nucleus is getting softer
F-actin (F-actin): dramatically reduced
cytoskeletal stiffness (adherent cells): markedly reduced
nucleus stiffness (Brillouin signal vs fluorescence intensity) (cells (nucleus)): much softened

COC(=O)Nc1nc2ccc(C(=O)c3cccs3)cc2[nH]1 [Noco, nocodazole]
increase of averaged Brillouin shift of the nucleus, treated cell vs control (NIH 3T3 fibroblast cells [3]): 0.29 GHz

CC(/C=C/C(=O)NO)=C\[C@@H](C)C(=O)c1ccc(N(C)C)cc1 [TSA, trichostatin A]
Brillouin shift of the nucleus after treatment (NIH 3T3 cell line [4]; control nucleus 7.80 GHz, 356 treated cells): 7.71 GHz
Brillouin shift of the cytoplasm after treatment (NIH 3T3 cell line [4]; same as control): 7.56 GHz
